# Source: ChEMBL document CHEMBL1212804, “Comparative study of the mutant prevention concentrations of moxifloxacin, levofloxacin, and gemifloxacin against pneumococci” (2010)
# What was measured:
# Format in all cases: functional
# [1] = Ratio of AUC to MIC in Streptococcus pneumoniae ATCC 49619
# [2] = tested on: Streptococcus pneumoniae; experiment: Antibacterial activity against Streptococcus pneumoniae 1149 assessed as mutant prevention concentration by standard agar dilution method
# [3] = tested on: Streptococcus pneumoniae; experiment: Antibacterial activity against Streptococcus pneumoniae 1149 by standard agar dilution method
# [4] = tested on: Streptococcus pneumoniae; experiment: Antibacterial activity against Streptococcus pneumoniae 1065 assessed as mutant prevention concentration by standard agar dilution method
# [5] = tested on: Streptococcus pneumoniae; experiment: Antibacterial activity against Streptococcus pneumoniae ATCC 49619 assessed as 90% mutant prevention concentration
# [6] = tested on: Streptococcus pneumoniae; experiment: Antibacterial activity against Streptococcus pneumoniae 3321 by standard agar dilution method
# [7] = tested on: Streptococcus pneumoniae; experiment: Antibacterial activity against Streptococcus pneumoniae 1065 by standard agar dilution method
# [8] = tested on: Streptococcus pneumoniae; experiment: Antibacterial activity against Streptococcus pneumoniae 3321 assessed as mutant prevention concentration by standard agar dilution method
# [9] = tested on: Streptococcus pneumoniae; experiment: Antibacterial activity against Streptococcus pneumoniae 1135 by standard agar dilution method
# [10] = tested on: Streptococcus pneumoniae; experiment: Ratio of 50% mutant prevention concentration to MIC50 in Streptococcus pneumoniae ATCC 49619
# [11] = tested on: Streptococcus pneumoniae; experiment: Antibacterial activity against Streptococcus pneumoniae 1058 by standard agar dilution method
# [12] = tested on: Streptococcus pneumoniae; experiment: Antibacterial activity against Streptococcus pneumoniae ATCC 49619
# [13] = tested on: Streptococcus pneumoniae; experiment: Antibacterial activity against Streptococcus pneumoniae 1135 assessed as mutant prevention concentration by standard agar dilution method
# [14] = tested on: Streptococcus pneumoniae; experiment: Antibacterial activity against Streptococcus pneumoniae ATCC 49619 assessed as 50% mutant prevention concentration
# [15] = tested on: Streptococcus pneumoniae; experiment: Antibacterial activity against Streptococcus pneumoniae 1058 assessed as mutant prevention concentration by standard agar dilution method
# [16] = tested on: Streptococcus pneumoniae; experiment: Antibacterial activity against Streptococcus pneumoniae 1072 assessed as mutant prevention concentration by standard agar dilution method
# [17] = tested on: Streptococcus pneumoniae; experiment: Antibacterial activity against Streptococcus pneumoniae 1151 assessed as mutant prevention concentration by standard agar dilution method
# [18] = tested on: Streptococcus pneumoniae; experiment: Antibacterial activity against Streptococcus pneumoniae 1072 by standard agar dilution method
# [19] = tested on: Streptococcus pneumoniae; experiment: Ratio of 90% mutant prevention concentration to MIC90 in Streptococcus pneumoniae ATCC 49619
# [20] = tested on: Streptococcus pneumoniae; experiment: Antibacterial activity against Streptococcus pneumoniae 1151 by standard agar dilution method
SMILES,Activity [2],MIC [3],Activity [4],Activity [5],MIC [6],MIC [7],Activity [8],MIC [9],Ratio [10],MIC [11],MIC50 [12],MIC90 [12],Activity [13],Activity [14],Activity [15],Activity [16],Activity [17],MIC [18],Ratio [19],MIC [20],also measured
O=C(O)c1cn(C2CC2)c2cc(N3CCNCC3)c(F)cc2c1=O,–,–,–,–,–,–,–,–,–,–,–,–,–,–,–,–,–,–,–,–,RatioAUC/MIC [1]: 30
CO/N=C1\CN(c2nc3c(cc2F)c(=O)c(C(=O)O)cn3C2CC2)CC1CN (configuration not stated) [GEMIFLOXACIN],>8 µg/mL,0.5 µg/mL,4 µg/mL,4 µg/mL,0.125 µg/mL,0.125 µg/mL,2 µg/mL,0.5 µg/mL,4,0.125 µg/mL,0.125 µg/mL,1 µg/mL,4 µg/mL,0.5 µg/mL,1 µg/mL,8 µg/mL,8 µg/mL,1 µg/mL,4,1 µg/mL,–
C[C@H]1COc2c(N3CCN(C)CC3)c(F)cc3c(=O)c(C(=O)O)cn1c23.C[C@H]1COc2c(N3CCN(C)CC3)c(F)cc3c(=O)c(C(=O)O)cn1c23.O [LEVOFLOXACIN],>64 µg/mL,–,32 µg/mL,64 µg/mL,–,–,32 µg/mL,–,–,–,2 µg/mL,32 µg/mL,128 µg/mL,4 µg/mL,64 µg/mL,256 µg/mL,32 µg/mL,–,–,–,–
COc1c(N2C[C@@H]3CCCN[C@@H]3C2)c(F)cc2c(=O)c(C(=O)O)cn(C3CC3)c12 [MOXIFLOXACIN],>8 µg/mL,0.5 µg/mL,>8 µg/mL,16 µg/mL,0.5 µg/mL,0.5 µg/mL,>8 µg/mL,2 µg/mL,2,0.5 µg/mL,0.5 µg/mL,4 µg/mL,32 µg/mL,1 µg/mL,>4 µg/mL,64 µg/mL,>8 µg/mL,8 µg/mL,4,1 µg/mL,–
